Reference: ChEMBL document CHEMBL1201862, “PubChem BioAssay data set” (2004)
The source made the active and inactive calls.

Key:
[1] = molecular target: T1, Mannose-6-phosphate isomerase (Homo sapiens, UniProt P34949); test: MPI inhibition at elevated mannose 6-phosphate – biochemical, fluorescence intensity, high mannose 6-phosphate, primary screen (AID 1220)
T1 sequence (P34949 whole entry): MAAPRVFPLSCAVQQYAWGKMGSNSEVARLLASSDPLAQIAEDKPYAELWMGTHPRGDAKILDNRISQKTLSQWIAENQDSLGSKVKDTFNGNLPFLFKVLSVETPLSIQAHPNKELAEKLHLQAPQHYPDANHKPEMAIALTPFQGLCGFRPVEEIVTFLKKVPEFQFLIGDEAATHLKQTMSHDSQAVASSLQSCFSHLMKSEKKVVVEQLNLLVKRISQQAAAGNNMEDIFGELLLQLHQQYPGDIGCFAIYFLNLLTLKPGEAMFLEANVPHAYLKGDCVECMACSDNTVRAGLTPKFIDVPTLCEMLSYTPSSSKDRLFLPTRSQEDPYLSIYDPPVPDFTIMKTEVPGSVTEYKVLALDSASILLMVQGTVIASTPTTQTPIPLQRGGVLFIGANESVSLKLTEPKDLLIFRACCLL

Caspase-6 = molecular target: T2, Caspase-6 (Homo sapiens, UniProt P55212); test: inhibition of CASP6 peptide cleavage – biochemical, VEID-R110 fluorescence, cherry-pick, dose response (AID 720632)
T2 sequence (P55212 whole entry): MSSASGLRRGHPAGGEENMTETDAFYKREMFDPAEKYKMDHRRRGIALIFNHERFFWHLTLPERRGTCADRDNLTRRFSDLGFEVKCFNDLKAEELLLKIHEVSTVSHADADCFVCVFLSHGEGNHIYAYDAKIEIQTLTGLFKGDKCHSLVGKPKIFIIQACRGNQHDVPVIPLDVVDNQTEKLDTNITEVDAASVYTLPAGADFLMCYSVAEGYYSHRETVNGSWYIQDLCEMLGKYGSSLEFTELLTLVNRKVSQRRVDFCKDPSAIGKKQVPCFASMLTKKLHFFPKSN

[2] = molecular target: T3, RNA-binding protein pos-1 (Caenorhabditis elegans, UniProt G5EF15); test: disruptors of C. elegans POS-1 RNA interaction – biochemical, fluorescence polarization, dose response (AID 1964);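 note: purified POS-1 fused to maltose binding protein made in E. coli; potency of compounds blocking POS-1 binding to fluorescent RNA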
T3 sequence (G5EF15 whole entry): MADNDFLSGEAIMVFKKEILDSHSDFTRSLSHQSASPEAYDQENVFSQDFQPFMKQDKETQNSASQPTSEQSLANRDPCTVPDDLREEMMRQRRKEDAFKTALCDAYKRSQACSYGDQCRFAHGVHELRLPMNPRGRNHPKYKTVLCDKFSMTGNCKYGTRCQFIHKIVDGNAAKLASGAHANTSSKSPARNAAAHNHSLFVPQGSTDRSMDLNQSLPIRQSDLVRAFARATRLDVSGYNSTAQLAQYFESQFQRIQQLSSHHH

[3] = molecular target: T4, Zinc finger protein mex-5 (Caenorhabditis elegans, UniProt Q9XUB2); test: potency of MEX-5 RNA-binding blockers – biochemical, C. elegans, fluorescence polarization, dose response (AID 1960)
T4 sequence (Q9XUB2 whole entry): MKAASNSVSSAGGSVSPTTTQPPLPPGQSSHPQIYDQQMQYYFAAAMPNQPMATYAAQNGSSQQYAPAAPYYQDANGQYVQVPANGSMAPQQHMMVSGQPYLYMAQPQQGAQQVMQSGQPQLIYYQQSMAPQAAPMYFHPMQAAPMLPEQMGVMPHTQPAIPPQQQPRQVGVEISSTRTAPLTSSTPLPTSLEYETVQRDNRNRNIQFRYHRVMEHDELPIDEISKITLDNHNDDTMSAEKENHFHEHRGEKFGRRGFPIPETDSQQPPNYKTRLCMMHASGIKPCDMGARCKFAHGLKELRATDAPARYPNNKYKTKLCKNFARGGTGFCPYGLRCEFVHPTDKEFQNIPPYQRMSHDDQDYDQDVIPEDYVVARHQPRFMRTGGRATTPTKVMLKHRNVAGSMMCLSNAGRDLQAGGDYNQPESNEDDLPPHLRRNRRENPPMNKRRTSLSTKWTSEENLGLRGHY

cells [4] = type: functional
Cytochrome P450 2C9 = Cytochrome P450 2C9 (Homo sapiens, UniProt P11712)
Cytochrome P450 2C9, sequence (P11712 whole entry): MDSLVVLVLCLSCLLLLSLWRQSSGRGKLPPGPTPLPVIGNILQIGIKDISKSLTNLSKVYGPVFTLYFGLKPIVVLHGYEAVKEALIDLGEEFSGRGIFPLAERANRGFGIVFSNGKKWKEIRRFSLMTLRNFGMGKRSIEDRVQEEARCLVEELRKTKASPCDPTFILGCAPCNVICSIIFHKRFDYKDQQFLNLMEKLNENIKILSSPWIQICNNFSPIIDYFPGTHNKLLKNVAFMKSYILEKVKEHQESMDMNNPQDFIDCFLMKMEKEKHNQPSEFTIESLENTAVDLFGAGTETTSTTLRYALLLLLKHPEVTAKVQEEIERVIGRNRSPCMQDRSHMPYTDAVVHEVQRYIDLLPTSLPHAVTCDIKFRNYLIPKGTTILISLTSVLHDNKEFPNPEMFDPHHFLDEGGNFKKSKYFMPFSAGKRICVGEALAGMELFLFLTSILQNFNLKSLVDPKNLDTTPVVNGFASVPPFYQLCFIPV

Cytochrome P450 1A2 = molecular target: T5, Cytochrome P450 1A2 (Homo sapiens, UniProt P05177);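 note: PubChem cytochrome P450 panel assay, CYP1A2 panel member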
T5 sequence (P05177 whole entry): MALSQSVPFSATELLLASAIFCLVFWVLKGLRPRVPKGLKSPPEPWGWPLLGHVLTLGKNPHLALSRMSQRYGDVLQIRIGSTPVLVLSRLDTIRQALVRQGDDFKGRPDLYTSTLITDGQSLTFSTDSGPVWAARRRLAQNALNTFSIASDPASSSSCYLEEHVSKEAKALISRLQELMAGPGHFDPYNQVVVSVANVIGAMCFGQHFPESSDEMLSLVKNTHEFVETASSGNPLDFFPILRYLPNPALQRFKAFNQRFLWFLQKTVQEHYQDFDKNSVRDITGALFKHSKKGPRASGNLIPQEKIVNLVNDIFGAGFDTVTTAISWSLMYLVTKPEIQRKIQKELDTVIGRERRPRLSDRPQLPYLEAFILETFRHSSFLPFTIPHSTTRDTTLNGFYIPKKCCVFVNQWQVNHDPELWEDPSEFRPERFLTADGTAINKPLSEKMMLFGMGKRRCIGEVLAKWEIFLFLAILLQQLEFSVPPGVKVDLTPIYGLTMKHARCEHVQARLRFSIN

Cytochrome P450 3A4 = Cytochrome P450 3A4 (Homo sapiens, UniProt P08684);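 note: CYP3A4 tested as one member of a cytochrome P450 panel screen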
Cytochrome P450 3A4, sequence (P08684 whole entry): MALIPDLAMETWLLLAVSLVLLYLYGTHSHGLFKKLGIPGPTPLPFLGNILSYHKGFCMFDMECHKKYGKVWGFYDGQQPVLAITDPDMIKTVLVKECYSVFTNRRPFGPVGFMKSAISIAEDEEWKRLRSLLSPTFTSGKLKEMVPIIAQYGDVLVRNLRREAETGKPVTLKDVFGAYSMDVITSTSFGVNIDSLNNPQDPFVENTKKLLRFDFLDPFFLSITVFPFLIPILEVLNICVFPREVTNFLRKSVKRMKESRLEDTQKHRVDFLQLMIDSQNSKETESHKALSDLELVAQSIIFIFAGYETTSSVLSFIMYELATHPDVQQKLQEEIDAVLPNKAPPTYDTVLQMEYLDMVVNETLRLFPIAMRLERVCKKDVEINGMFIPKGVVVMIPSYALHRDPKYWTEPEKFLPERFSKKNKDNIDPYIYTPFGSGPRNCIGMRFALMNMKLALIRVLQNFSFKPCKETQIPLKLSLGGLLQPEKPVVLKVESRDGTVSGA

cells [5] = type: functional, cell-based
cells [6] = type: functional, cell-based; remark: listed apart in the source
[7] = HEK-293T cell viability reduction – luminescence, B-cell screen hits, cytotoxicity control for BCR NF-kB inhibitor project, dose response (AID 489021); type: functional, cell-based;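 note: HEK-293T cells carrying an NF-kB luciferase reporter; cells exposed to compound for about 14 hours before viability readout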
[8] = blockers of CRF-binding protein–CRF-R2 complex – cell-based, uHTS hits, 384-well, dose response (AID 651639); type: functional, Homo sapiens; conditions: read-out: IC50_Mean
[9] = molecular target: T6, Corticotropin-releasing factor receptor 2/Corticotropin-releasing factor-binding protein (Homo sapiens, UniProt P24387+Q13324); test: activators of CRF receptor 2 with binding protein – uHTS hits, confirmation (AID 602473); type: functional; conditions: read-out: EC50_Mean
T6 sequence (Q13324 whole entry): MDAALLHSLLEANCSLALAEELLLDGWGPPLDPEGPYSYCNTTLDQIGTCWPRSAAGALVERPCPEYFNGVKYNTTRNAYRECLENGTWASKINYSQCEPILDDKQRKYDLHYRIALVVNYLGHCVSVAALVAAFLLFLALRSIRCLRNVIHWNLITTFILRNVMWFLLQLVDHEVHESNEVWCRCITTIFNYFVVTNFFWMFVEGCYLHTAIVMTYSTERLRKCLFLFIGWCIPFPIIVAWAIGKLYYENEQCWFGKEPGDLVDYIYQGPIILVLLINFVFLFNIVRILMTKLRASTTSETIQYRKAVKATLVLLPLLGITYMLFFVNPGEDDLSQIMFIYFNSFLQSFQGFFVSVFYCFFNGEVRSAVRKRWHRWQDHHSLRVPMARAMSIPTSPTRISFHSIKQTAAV
T6 sequence (P24387 whole entry): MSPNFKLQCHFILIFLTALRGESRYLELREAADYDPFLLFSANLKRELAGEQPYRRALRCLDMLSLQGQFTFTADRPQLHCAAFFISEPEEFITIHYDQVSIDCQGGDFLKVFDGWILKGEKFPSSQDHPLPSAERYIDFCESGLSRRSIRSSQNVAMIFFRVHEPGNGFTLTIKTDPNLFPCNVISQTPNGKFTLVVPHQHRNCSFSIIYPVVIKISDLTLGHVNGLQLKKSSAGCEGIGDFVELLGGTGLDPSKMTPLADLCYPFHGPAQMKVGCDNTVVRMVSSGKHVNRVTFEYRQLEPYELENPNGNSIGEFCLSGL

[10] = molecular target: T6, Corticotropin-releasing factor receptor 2/Corticotropin-releasing factor-binding protein; test: Dose Response confirmation of uHTS hits for small molecule antagonists of the CRF-binding protein and CRF-R2 receptor complex.; type: functional; conditions: read-out: IC50_Mean
cells [11] = type: functional, cell-based; remark: listed apart in the source
cells [12] = type: functional, cell-based; remark: listed apart in the source
[13] = molecular target: T7, Apoptotic protease-activating factor 1 (Homo sapiens, UniProt O14727); type: functional
T7 sequence (O14727 whole entry): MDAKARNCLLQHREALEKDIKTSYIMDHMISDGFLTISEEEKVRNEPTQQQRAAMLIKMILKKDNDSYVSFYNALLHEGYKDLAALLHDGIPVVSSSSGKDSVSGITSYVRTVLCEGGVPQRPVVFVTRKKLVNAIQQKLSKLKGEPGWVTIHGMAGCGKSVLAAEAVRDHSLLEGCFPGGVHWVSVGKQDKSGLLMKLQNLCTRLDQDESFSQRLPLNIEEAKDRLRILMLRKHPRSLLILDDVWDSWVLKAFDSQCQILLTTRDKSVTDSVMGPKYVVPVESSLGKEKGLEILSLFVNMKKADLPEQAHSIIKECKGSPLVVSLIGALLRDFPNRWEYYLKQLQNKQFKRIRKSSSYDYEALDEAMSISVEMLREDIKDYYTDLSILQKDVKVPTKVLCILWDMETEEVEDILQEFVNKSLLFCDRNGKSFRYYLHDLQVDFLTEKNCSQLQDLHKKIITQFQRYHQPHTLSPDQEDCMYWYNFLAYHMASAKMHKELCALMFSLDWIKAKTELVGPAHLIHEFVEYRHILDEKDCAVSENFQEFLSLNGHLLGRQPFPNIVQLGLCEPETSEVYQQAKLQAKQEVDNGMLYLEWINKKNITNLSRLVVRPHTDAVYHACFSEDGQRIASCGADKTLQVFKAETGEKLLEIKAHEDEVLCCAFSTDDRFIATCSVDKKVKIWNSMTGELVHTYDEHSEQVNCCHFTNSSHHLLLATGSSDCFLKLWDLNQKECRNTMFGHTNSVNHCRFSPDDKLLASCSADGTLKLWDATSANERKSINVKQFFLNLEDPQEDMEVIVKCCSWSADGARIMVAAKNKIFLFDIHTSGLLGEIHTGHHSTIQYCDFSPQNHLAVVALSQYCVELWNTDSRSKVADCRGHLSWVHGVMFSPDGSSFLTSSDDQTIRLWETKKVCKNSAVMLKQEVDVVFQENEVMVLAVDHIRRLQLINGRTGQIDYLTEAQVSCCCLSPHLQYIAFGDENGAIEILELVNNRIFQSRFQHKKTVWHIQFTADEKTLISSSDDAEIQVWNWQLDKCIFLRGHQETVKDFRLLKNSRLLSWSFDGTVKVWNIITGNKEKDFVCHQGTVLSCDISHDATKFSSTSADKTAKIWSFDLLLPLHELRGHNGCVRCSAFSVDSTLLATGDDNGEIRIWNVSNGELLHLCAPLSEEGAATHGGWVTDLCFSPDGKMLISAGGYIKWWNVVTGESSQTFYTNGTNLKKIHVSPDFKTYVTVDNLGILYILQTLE

## O=C(CSc1ccc(-c2ccccn2)nn1)c1ccc(F)cc1
[1]
  IC50: > 50 µM (not active)

## O=C(Nc1ccccc1F)c1coc(=O)c(Br)c1
Caspase-6
  AC50: 23.8 µM (active)
[2]
  EC50: > 300 µM (not active)
[3]
  EC50: > 300 µM (not active)

## O=C(OCn1nnc2ccccc2c1=O)c1ccc(N2CCOCC2)c([N+](=O)[O-])c1
Cells [4]
  IC50: 10 µM (active)

## COc1c(NC(C)=O)c2ccccc2c2ccccc12
Cytochrome P450 2C9
  AC50: inconclusive

## O=C(NCc1ccccc1)c1ccc(Cl)cc1[N+](=O)[O-]
Cytochrome P450 1A2
  AC50: 20 µM (inconclusive)
Cytochrome P450 2C9
  AC50: inconclusive
Cytochrome P450 3A4
  AC50: 22.4 µM (inconclusive)

## CCCCNS(=O)(=O)c1cc(-c2nn(C)c(=O)c3ccccc23)ccc1C
Caspase-6
  AC50: 21.3 µM (active)

## Oc1ccc(/C=N/CC2COc3ccccc3O2)cc1 (stereo not given)
Cells [5]
  EC50: > 29.9 µM (inactive)
Cells [6]
  IC50: > 29.9 µM (inactive)

## CN1C(=O)CSc2ccc(NC(=O)N3CCN(c4ccccc4)CC3)cc21
[7]
  IC50: > 80 µM (inactive)

## CC(=O)c1ccc(NC(=O)c2cc(CC(C)C)on2)cc1
Cells [4]
  IC50: 12 µM (active)

## O=C(COc1ccc(F)cc1)NNC(=O)c1cc2ccccc2oc1=O
Cells [5]
  EC50: > 29.9 µM (inactive)
Cells [6]
  IC50: > 29.9 µM (inactive)

## Cc1nc2c(C(=O)NCCc3ccccc3)cnn2c(O)c1Cl
[8]
  IC50: > 20 µM (inactive)
[9]
  EC50: > 53 µM (inactive)
[1]
  IC50: > 50 µM (not active)
[10]
  IC50: 44.5 µM (active)

## CCN(CC(=O)NCc1cccs1)S(=O)(=O)c1ccc(C(C)C)cc1
Cytochrome P450 2C9
  AC50: inconclusive

## Cc1ccc(-n2cc(C(=O)c3ccc4ccccc4c3O)cn2)cc1
Cytochrome P450 1A2
  AC50: 1.41 µM (inconclusive)
Cytochrome P450 2C9
  AC50: inconclusive

## Cc1ccc2c(c1)c1c3n2CCN=C3CCC1
Cells [4]
  IC50: 11.9 µM (active)

## CC(=C1C(=O)c2ccccc2C1=O)N1CCc2ccccc2C1
Cells [5]
  EC50: > 29.9 µM (inactive)
Cells [6]
  IC50: > 29.9 µM (inactive)

## C[C@H](O)[C@@H]1C(=O)N2CCc3c([nH]c4ccccc34)[C@@H]2C[C@@H]1N(C)C(=O)Nc1cccc2ccccc12
Caspase-6
  AC50: 35.9 µM (active)

## CC1CCN(S(=O)(=O)c2ccc3c4c2CC(=O)N4CC(C)S3)CC1 (stereo not given)
Cells [11]
  EC50: > 350 µM (not active)
Cells [12]
  EC50: > 350 µM (not active)
[13]
  IC50: 3.64 µM (active)
